According to a flash point compilation (Sun et al. 2020):

Row | flash point | SMILES
1 | 120.00 °C | CC(C)C(=O)OCC(C)(C)C(O)C(C)C (stereo not drawn) [(3-hydroxy-2,2,4-trimethylpentyl) 2-methylpropanoate]
2 | 46.00 °C | CC(CCN(C)C)N(C)C (stereo not drawn) [1-N,1-N,3-N,3-N-tetramethylbutane-1,3-diamine]
3 | 46.00 °C | C=C(C)C1CC=C(C)CC1 (stereo not drawn) [1-methyl-4-prop-1-en-2-ylcyclohexene]
4 | 110.00 °C | C=CCCCCCCCCCCCC [tetradec-1-ene]
5 | 66.00 °C | CC(O)CC=O (stereo not drawn) [3-hydroxybutanal]
6 | -29.00 °C | CC(C)C(C)C [2,3-dimethylbutane]
7 | 102.00 °C | NCCNCCN [N'-(2-aminoethyl)ethane-1,2-diamine]
8 | 113.00 °C | CCCCCCCCCCCCCCCCCCCCCC [docosane]
9 | 71.00 °C | C=CCCCCCCCCC [undec-1-ene]
10 | 115.00 °C | C=CC(=O)OCC(C)(C)COC(=O)C=C [(2,2-dimethyl-3-prop-2-enoyloxypropyl) prop-2-enoate]
11 | 273.00 °C | O=C(O)/C=C/C(=O)O [(E)-but-2-enedioic acid]
12 | 141.00 °C | CCCCCCCCCCCc1ccccc1 [undecylbenzene]
13 | 18.00 °C | CCCCCS [pentane-1-thiol]
14 | 46.00 °C | CCCCCCCCS [octane-1-thiol]
15 | 182.00 °C | CC1=Nc2ccc3ccccc3c2C1(C)C [1,1,2-trimethylbenzo[e]indole]
16 | 96.00 °C | CN1CCCC1=O [1-methylpyrrolidin-2-one]
17 | 77.00 °C | CCCCO.[Ti] [butan-1-ol;titanium]
18 | 107.00 °C | CCOc1ccc2c(c1)C(C)=CC(C)(C)N2 [6-ethoxy-2,2,4-trimethyl-1H-quinoline]
19 | 127.00 °C | CC=CC=CC(=O)O [hexa-2,4-dienoic acid]
20 | 107.00 °C | CC(C)=CCC/C(C)=C\CO [(2Z)-3,7-dimethylocta-2,6-dien-1-ol]
21 | 182.00 °C | NC(=O)c1cccnc1 [pyridine-3-carboxamide]
22 | 46.00 °C | CCCCCC(C)(C)S [2-methylheptane-2-thiol]
23 | 226.00 °C | Nc1cccc2c(N)cccc12 [naphthalene-1,5-diamine]
24 | 3.00 °C | C1CCNC1 [pyrrolidine]
25 | -20.00 °C | C[CH2][Al]([Cl])[CH2]C.C[CH2][Al]([Cl])[Cl] [chloro(diethyl)alumane;dichloro(ethyl)alumane]
26 | 71.00 °C | CCCCCC(C)O (stereo not drawn) [heptan-2-ol]
27 | 260.00 °C | O=C(O)c1ccc(C(=O)O)cc1 [terephthalic acid]

Row | SMILES | flash point
28 | CCN(CC)N=O [N,N-diethylnitrous amide] | 63.00 °C
29 | CCOP(OCC)OCC [triethyl phosphite] | 46.00 °C
30 | c1ccc(-c2ccccc2-c2ccccc2)cc1 [1,2-diphenylbenzene] | 163.00 °C
31 | CN(C)C(=S)SSC(=S)N(C)C [dimethylcarbamothioylsulfanyl N,N-dimethylcarbamodithioate] | 138.00 °C
32 | Nc1ccc2ccccc2c1 [naphthalen-2-amine] | 157.00 °C
33 | O=CC(Cl)=C(Cl)C(=O)O [2,3-dichloro-4-oxobut-2-enoic acid] | 100.00 °C
34 | O=C(O)C(Cl)Br (stereo not drawn) [2-bromo-2-chloroacetic acid] | 110.00 °C
35 | O=[N+]([O-])c1c(Cl)c(Cl)c(Cl)c(Cl)c1Cl [1,2,3,4,5-pentachloro-6-nitrobenzene] | 127.00 °C
36 | OOC1(OOC2(O)CCCCC2)CCCCC1 [1-(1-hydroperoxycyclohexyl)peroxycyclohexan-1-ol] | 157.00 °C
37 | CC(C#N)CCC#N (stereo not drawn) [2-methylpentanedinitrile] | 126.00 °C
38 | CC(Oc1ccc(Cl)cc1Cl)C(=O)O (stereo not drawn) [2-(2,4-dichlorophenoxy)propanoic acid] | 204.00 °C
